Patent US20250197865A1, “PHARMACEUTICAL COMPOSITION FOR TREATMENT OR PREVENTION OF FIBROTIC DISEASE” (KYUSHU UNIVERSITY, NATIONAL UNIVERSITY CORPORATION, priority 2022, published 2025)

Tests used:
[1] = test system: mRNA expression of fibrosis-related factors (collagens, elastin) in myofibroblasts; assay: siRNA treatment of myofibroblasts from carbon tetrachloride-induced fibrotic liver, fibrosis-related factor mRNA by real-time RT-PCR; format: cell-based, mouse; conditions: myofibroblasts from CCl4 liver fibrosis model; si Smad3 versus si Ctrl; P4HA3, Col1α1, Col1α2, Col3α1; FIG. 26c
SMAD3 mRNA = assay: si Smad3 transfection of myofibroblasts from carbon tetrachloride-induced fibrotic liver, SMAD3 mRNA; format: cell-based, mouse; conditions: myofibroblasts from CCl4 liver fibrosis model; versus si Ctrl; FIG. 26c
Method: The mRNA expression levels of P4HA3 etc. in the examples of the present specification were quantified as follows. The concentration of purified RNA was determined using a microspectrophotometer DS-11 (DeNovix), and reverse transcription to cDNA was performed using a High Capacity cDNA Reverse Transcription Kit (Applied Biosystems). Quantification of mRNA was performed according to the protocol of Luna Universal qPCR Master Mix (New England BioLabs), with DNA polymerase activation at 95° C. for 60 seconds, followed by 45 cycles of cDNA denaturation at 95° C. for 15 seconds and extension at 60° C. for 30 seconds. Analysis was performed by the AACt method using GAPDH as an internal standard. Mouse Cyp7al probe was purchased from Applied Biosystems. Primers and probes for mouse α-smooth muscle actin (α-SMA), CD68, 1α1 collagen (Col1α1), 1α2 collagen (Col1α2), 1α3 collagen (Col1α3), 6α1 collagen (Col6α1), 8α1 collagen (Co81α1), GAPDH (glyceraldehyde-3-phosphate dehydrogenase), heat shock protein 47 (Hsp47), prolyl 4-hydroxylase alphal subunit (P4HA1), prolyl 4-hydroxylase alpha2 subunit (P4HA2), and prolyl 4-hydroxylase alpha3 subunit (P4HA3) were purchased from Sigma-Aldrich.
Hepatic stellate cells, which are involved in liver fibrosis, are known to be activated by TGFβ (Fabregat, I. et al., FEBS J., 283:2219-2232 (2016)). […]

With “si Smad3: siRNA for mouse SMAD3, SEQ ID NOs: 14 and 15; ThermoFisher Scientific catalog 4390771, Assay ID s69495 (chain 1 GGAATTTGCTGCCCTCCTATT; chain 2 TAGGAGGGCAGCAAATTCCCT; listed as DNA, chemistry not given here)” the “mRNA expression of fibrosis-related factors including P4HA3” value [1] was “suppressed” and the “mRNA expression of SMAD3” value (SMAD3 mRNA) was “inhibits”.
